The text below walks through data of ChEMBL document CHEMBL5055632, “Anti-Inflammatory and Antinociceptive Properties of Kielmeyerone A, a Chromenone Isolated from the Roots of Kielmeyera reticulata” (J Nat Prod, 2021).

Data set [1] deals with Mus musculus. Put plainly: Antinociceptive activity in ip dosed Swiss Webster mouse model of formalin-induced biphasic nociceptive response assessed as reduction in pain during late phase when administered 40 mins before formalin injection and measured after 10 to 30 mins post formalin challenge. The following applies: dose 12.5-50 mg/kg, time 50-70 min. The data set is classed as functional, organism-based.

For data set [2], the system named is J774. In words: Antiinflammatory activity against mouse J774 cells assessed as inhibition of LPS/IFNgamma-stimulated NO production at 0.097 to 1.56 uM incubated for 24 hrs bu Griess reagent based assay. The class given is functional, cell-based. The settings on record: dose 0.097-1.56 µM. In general terms: Griess reagent forms a coloured azo dye with nitrite.

For data set [3], the system named is Mus musculus. Put plainly: Antinociceptive activity in Swiss Webster mouse model of formalin-induced biphasic nociceptive response assessed as reduction in pain during early phase at 12.5 to 50 mg/kg, ip administered 40 mins before formalin injection and measured after 10 mins post formalin challenge. The class given is functional, organism-based. The settings on record: dose 12.5-50 mg/kg, time 50.0 min.

Data set [4] concerns Mus musculus. Put plainly: Effect on motor performance in Swiss Webster mouse assessed as effect on relaxing or motor deficit at 100 mg/kg, ip measured up to 120 sec by rotarod test. The class given is ADME, organism-based. The following applies: in vivo, 2 min.
Data set [5] deals with Mus musculus. Put plainly: Antiinflammatory activity in ip dosed Swiss Webster mouse model of complete freund's adjuvant-induced paw edema assessed as reduction in paw edema when administered 40 mins before CFA injection by plethysmometer analysis. The class given is functional, organism-based. The settings on record: dose 12.5-50 mg/kg.
In data set [6] the test system is J774. Put plainly: Cytotoxicity against LPS and IFN-gamma stimulated mouse J774 cells at 0.39 to 25 uM incubated for 72 hrs by alamar blue dye based colorimetric plate analysis. The class given is cell-based. The following applies: j774, 72 h, dose 0.39-25 µM.
Data set [7] relates to Mus musculus. In words: Antinociceptive activity in Swiss Webster mouse model of formalin-induced biphasic nociceptive response assessed as reduction in pain during early phase at 5 mg/kg, ip administered 40 mins before formalin injection and measured after 10 mins post formalin challenge. The data set is classed as functional, organism-based. The settings on record: time 50.0 min.

In data set [8] the test system is Mus musculus. In words: Antinociceptive activity in Swiss Webster mouse model of formalin-induced biphasic nociceptive response assessed as reduction in pain during late phase at 5 mg/kg, ip administered 40 mins before formalin injection and measured after 10 to 30 mins post formalin challenge. The settings on record: time 50-70 min. The data set is classed as functional, organism-based.

The test system of data set [9] is Mus musculus. In words: Antiinflammatory activity in Swiss Webster mouse model of complete freund's adjuvant-induced paw edema assessed as reduction in paw edema at 2 mg/kg, ip administered 40 mins before CFA injection by plethysmometer analysis. The class given is functional, organism-based.

The source made the active and inactive calls. No cut-off for these calls is given here.

Take `CC(C)=CCC1(CC=C(C)C)C(=O)c2c(CC(C)C)cc(=O)oc2C(C(=O)CC(C)C)=C1O`: in data set [1], the outcome was inactive. For the same compound, the inhibition entry in [2] was “Active”. For the same compound, the Activity entry in [3] was “Dose-dependent effect”; in data set [4], “Non-Toxic”; in data set [5] it was “Dose-dependent effect”; in [6], “Non-Toxic”.
Regarding `CN1CC[C@]23c4c5ccc(O)c4O[C@H]2[C@@H](O)C=C[C@H]3[C@H]1C5`, the result in data set [7] and in data set [8] was Active.
Turning to `COc1ccc2c(c1)c(CC(=O)O)c(C)n2C(=O)c1ccc(Cl)cc1`, the outcome in [7] was inactive. Moreover, the outcome in data set [8] was Active.
With `C[C@@H]1C[C@H]2[C@@H]3CCC4=CC(=O)C=C[C@]4(C)[C@@]3(F)[C@@H](O)C[C@]2(C)[C@@]1(O)C(=O)CO`, the result in data set [9] was Active.
